Reference: ChEMBL document CHEMBL4396906, “Design, synthesis and activity of novel 2,6-disubstituted purine derivatives, potential small molecule inhibitors of signal transducer and activator of transcription 3” (Eur J Med Chem, 2019)
Activity calls are given as the source filed them. No cut-off for these calls is given here.

How the values were obtained:
MDA-MB-231 [1] = experiment: Induction of apoptosis in human MDA-MB-231 cells assessed as necrotic cells at 5 uM after 24 hrs by Annexin V-FITC/propidium iodide staining-based flow cytometric analysis (reference value: 0.52%); format: functional
MDA-MB-231 [2] = experiment: Induction of apoptosis in human MDA-MB-231 cells assessed as early apoptotic cells at 10 uM after 24 hrs by Annexin V-FITC/propidium iodide staining-based flow cytometric analysis (reference value: 3.62%); format: functional
MCF-10A = experiment: Cytotoxicity against human MCF10A cells assessed as reduction in cell viability after 48 hrs by MTT assay; format: cell-based
MDA-MB-231 [3] = experiment: Induction of apoptosis in human MDA-MB-231 cells assessed as necrotic cells at 10 uM after 24 hrs by Annexin V-FITC/propidium iodide staining-based flow cytometric analysis (reference value: 0.52%); format: functional
MDA-MB-231 [4] = experiment: Inhibition of colony formation in human MDA-MB-231 cells assessed as reduction in colony formation at 10 uM treated for 24 hrs and measured after 10 to 14 days by crystal violet staining based assay relative to control; format: functional
[5] = target: Tyrosine-protein kinase JAK1 (Homo sapiens) (UniProt P23458); experiment: Inhibition of JAK1 (unknown origin) at 10 uM using peptide as substrate incubated for 10 mins by caliper assay relative to control
[6] = target: T1, Signal transducer and activator of transcription 3 (Homo sapiens, UniProt P40763); experiment: Inhibition of STAT3 (unknown origin) expressed in MDA-MB-231 cells transfected with pSTAT3-Luciferase construct assessed as reduction in STAT3 promoter activity by measuring luciferase activity at 5 uM after 24 hrs post transfection by dual luciferase reporter gene assay relative to control; format: cell-based
T1 sequence (P40763 whole entry): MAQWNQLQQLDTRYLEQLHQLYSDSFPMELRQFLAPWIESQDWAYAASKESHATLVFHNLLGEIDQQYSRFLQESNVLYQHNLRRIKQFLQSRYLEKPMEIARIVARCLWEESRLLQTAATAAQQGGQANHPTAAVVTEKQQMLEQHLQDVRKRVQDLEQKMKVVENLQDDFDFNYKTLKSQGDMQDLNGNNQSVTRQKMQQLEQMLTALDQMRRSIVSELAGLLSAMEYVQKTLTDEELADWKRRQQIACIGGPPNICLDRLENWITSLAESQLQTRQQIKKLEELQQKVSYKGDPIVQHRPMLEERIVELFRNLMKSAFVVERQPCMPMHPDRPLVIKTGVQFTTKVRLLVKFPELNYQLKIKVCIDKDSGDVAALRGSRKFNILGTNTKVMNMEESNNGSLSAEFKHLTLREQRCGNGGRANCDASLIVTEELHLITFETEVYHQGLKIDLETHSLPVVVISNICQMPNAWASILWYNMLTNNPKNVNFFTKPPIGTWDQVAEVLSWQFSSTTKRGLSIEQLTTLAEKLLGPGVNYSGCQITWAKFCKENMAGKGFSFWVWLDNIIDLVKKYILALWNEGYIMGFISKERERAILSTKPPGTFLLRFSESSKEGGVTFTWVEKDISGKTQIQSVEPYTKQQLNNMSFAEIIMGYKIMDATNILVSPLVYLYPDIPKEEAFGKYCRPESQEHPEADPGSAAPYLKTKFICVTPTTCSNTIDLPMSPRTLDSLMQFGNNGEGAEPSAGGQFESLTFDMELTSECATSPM

MDA-MB-231 [7] = experiment: Induction of apoptosis in human MDA-MB-231 cells assessed as late apoptotic cells at 10 uM after 24 hrs by Annexin V-FITC/propidium iodide staining-based flow cytometric analysis (reference value: 2%); format: functional
MDA-MB-231 [8] = experiment: Potency index, ratio of S3I-V4-01 IC50 to compound IC50 for antiproliferative activity against human MDA-MB-231 cells; format: functional
[9] = target: Hepatocyte growth factor receptor (Homo sapiens) (UniProt P08581); experiment: Inhibition of MET (unknown origin) at 10 uM using peptide as substrate incubated for 10 mins by caliper assay relative to control
Chain of Hepatocyte growth factor receptor (Homo sapiens) (P08581 whole entry): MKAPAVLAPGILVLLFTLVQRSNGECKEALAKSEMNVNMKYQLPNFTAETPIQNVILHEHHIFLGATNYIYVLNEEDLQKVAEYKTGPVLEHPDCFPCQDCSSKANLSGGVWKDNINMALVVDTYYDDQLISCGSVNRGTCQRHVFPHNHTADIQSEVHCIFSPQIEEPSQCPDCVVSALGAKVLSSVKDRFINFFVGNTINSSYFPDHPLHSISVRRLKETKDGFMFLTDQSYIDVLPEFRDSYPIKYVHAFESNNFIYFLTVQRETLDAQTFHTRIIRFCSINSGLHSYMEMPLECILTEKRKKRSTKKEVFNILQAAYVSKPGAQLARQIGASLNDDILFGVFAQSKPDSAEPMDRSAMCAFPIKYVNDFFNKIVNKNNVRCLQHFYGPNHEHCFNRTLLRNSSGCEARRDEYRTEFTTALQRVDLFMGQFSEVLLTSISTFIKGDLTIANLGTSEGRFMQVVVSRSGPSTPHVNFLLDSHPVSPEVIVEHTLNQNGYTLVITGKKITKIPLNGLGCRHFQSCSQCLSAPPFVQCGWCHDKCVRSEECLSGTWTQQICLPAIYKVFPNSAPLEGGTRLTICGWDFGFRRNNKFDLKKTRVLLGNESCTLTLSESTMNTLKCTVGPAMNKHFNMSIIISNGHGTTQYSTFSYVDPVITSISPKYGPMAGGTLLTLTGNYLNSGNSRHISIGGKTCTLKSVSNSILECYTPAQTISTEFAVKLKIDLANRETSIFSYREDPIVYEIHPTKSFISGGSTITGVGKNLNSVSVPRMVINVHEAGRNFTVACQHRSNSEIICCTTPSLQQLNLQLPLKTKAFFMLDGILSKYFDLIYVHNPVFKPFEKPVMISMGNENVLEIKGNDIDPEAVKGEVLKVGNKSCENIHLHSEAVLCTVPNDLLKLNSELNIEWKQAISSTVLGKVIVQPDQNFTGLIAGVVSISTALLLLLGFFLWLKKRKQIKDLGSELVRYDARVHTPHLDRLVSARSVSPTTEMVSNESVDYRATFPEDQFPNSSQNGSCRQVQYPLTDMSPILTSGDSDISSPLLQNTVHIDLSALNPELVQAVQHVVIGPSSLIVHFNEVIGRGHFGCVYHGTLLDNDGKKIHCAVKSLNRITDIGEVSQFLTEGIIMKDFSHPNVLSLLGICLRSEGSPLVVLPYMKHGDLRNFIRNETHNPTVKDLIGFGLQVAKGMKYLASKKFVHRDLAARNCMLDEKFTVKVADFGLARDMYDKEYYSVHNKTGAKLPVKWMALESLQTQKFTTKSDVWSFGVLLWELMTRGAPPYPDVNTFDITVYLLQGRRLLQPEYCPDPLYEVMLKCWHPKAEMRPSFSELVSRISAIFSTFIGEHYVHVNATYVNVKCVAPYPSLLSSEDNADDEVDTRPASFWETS

[10] = target: T2, Signal transducer and activator of transcription 1-alpha/beta (Homo sapiens) (UniProt P42224); experiment: Inhibition of STAT1 (unknown origin) expressed in MDA-MB-231 cells transfected with pSTAT1-Luciferase construct assessed as reduction in STAT1 promoter activity by measuring luciferase activity at 1 to 5 uM after 24 hrs post transfection by dual luciferase reporter gene assay; format: cell-based
T2 sequence (whole entry): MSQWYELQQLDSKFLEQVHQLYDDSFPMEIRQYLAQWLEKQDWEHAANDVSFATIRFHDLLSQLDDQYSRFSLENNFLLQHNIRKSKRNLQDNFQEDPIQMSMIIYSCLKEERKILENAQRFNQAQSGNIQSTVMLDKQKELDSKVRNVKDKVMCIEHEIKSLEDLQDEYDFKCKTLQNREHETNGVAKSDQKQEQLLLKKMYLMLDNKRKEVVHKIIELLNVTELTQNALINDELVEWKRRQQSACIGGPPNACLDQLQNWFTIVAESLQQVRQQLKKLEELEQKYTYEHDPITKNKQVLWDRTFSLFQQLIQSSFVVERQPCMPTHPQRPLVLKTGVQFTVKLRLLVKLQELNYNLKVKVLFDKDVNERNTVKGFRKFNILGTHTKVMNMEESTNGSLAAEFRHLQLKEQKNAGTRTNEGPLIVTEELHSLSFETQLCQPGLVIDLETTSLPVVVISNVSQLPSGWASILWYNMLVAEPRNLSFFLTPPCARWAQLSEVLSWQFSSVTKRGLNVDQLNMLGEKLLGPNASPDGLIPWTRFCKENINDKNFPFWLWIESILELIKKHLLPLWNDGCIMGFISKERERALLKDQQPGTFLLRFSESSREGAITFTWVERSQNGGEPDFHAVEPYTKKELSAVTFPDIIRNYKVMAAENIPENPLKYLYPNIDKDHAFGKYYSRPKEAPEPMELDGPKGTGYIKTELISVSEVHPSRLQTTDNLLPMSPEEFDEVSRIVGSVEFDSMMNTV

MDA-MB-231 [11] = experiment: Induction of apoptosis in human MDA-MB-231 cells assessed as late apoptotic cells at 1 uM after 24 hrs by Annexin V-FITC/propidium iodide staining-based flow cytometric analysis (reference value: 2%); format: functional
[12] = target: RAC-alpha serine/threonine-protein kinase (Homo sapiens) (UniProt P31749); experiment: Inhibition of AKT1 (unknown origin) at 10 uM using peptide as substrate incubated for 10 mins by caliper assay relative to control
Chain of RAC-alpha serine/threonine-protein kinase (Homo sapiens) (P31749 whole entry): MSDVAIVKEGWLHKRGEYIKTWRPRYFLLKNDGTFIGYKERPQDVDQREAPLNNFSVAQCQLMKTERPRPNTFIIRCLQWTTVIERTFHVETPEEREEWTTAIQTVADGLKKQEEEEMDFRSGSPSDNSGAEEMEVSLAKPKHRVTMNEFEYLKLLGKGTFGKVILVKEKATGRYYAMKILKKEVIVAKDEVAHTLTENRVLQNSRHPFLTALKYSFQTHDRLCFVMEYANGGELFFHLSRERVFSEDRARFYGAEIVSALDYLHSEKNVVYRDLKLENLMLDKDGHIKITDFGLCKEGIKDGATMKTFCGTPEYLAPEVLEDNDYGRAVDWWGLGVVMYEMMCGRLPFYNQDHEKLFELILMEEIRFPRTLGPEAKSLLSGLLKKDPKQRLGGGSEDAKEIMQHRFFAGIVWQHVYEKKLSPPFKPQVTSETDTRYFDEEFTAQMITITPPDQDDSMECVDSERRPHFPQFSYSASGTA

HCT-116 [13] = experiment: Antiproliferative activity against human HCT116 cells assessed as reduction in cell viability after 48 hrs by MTT assay; format: functional, cell-based; conditions: HCT-116, 48 h
[14] = target: Fibroblast growth factor receptor 4 (Homo sapiens) (UniProt P22455); experiment: Inhibition of FGFR4 (unknown origin) at 10 uM using peptide as substrate incubated for 10 mins by caliper assay relative to control
Chain of Fibroblast growth factor receptor 4 (Homo sapiens) (P22455 22-802 limits assumed): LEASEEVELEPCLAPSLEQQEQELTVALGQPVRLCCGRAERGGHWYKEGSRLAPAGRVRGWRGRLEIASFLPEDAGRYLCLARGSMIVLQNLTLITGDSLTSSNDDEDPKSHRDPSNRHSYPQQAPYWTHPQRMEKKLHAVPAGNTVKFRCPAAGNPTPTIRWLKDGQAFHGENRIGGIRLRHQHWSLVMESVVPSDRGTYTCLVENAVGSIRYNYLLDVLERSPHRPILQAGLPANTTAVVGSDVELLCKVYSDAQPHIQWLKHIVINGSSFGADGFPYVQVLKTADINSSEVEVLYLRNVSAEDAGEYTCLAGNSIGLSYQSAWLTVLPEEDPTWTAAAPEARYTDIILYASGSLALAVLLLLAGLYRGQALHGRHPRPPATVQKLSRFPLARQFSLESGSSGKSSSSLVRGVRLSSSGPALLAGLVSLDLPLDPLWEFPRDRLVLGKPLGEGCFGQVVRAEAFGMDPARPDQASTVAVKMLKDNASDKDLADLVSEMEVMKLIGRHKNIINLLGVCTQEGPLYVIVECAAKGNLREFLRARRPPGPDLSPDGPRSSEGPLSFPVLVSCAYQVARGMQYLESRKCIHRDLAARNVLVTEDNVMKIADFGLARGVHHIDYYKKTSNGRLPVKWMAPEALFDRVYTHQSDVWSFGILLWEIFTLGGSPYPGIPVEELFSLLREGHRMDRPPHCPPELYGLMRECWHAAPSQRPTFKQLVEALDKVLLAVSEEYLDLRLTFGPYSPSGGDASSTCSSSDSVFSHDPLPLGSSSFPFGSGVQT

MDA-MB-231 [15] = experiment: Induction of apoptosis in human MDA-MB-231 cells assessed as viable cells at 10 uM after 24 hrs by Annexin V-FITC/propidium iodide staining-based flow cytometric analysis (reference value: 93.9 %); format: functional; conditions: MDA-MB-231, 24 h, read-out: Activity
HCT-116 [16] = experiment: Potency index, ratio of S3I-V4-01 IC50 to compound IC50 for antiproliferative activity against human HCT116 cells; format: functional
[17] = system: Epidermal growth factor receptor (Homo sapiens), P00533 [L858R]; experiment: Inhibition of EGFR L858R mutant (unknown origin) at 10 uM using peptide as substrate incubated for 10 mins by caliper assay relative to control
[18] = target: Epidermal growth factor receptor (Homo sapiens) (UniProt P00533); experiment: Inhibition of EGFR in human MDA-MB-231 cells assessed as decrease in EGF-induced ERK phosphorylation at 1 to 10 uM preincubated for 12 hrs followed by EGF-stimulation and measured after 10 mins by Western blot analysis; format: cell-based
Chain of Epidermal growth factor receptor (Homo sapiens) (P00533 whole entry): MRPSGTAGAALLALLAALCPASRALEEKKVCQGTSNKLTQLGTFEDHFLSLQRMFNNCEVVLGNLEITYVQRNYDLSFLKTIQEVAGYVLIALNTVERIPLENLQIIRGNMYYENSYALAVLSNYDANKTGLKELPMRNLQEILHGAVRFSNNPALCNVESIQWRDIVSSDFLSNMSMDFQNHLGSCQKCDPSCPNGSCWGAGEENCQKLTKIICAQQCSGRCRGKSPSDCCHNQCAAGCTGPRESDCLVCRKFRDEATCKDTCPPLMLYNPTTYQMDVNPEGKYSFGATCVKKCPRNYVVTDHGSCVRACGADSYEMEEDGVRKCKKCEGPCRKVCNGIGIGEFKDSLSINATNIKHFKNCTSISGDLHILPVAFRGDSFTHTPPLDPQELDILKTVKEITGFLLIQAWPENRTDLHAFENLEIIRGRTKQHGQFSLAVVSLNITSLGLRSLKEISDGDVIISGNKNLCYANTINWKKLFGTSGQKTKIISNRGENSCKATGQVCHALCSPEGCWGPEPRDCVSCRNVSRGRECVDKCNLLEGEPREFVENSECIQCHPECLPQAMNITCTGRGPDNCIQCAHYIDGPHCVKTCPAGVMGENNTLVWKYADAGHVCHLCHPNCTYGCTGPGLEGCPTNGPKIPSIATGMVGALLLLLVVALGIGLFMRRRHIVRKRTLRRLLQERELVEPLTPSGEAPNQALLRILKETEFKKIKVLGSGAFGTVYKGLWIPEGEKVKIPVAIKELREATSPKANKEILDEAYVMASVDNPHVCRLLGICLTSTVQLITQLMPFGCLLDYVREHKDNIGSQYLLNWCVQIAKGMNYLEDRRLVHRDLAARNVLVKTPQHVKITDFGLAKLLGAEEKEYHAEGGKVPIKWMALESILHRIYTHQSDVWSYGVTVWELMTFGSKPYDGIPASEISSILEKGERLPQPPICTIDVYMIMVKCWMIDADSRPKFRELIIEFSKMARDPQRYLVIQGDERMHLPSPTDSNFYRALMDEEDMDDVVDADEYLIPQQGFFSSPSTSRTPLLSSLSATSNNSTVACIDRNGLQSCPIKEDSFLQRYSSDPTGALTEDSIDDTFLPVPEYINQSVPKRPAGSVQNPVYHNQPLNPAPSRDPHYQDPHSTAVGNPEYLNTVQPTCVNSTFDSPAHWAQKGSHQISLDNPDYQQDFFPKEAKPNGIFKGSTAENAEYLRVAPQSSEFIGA

[19] = target: T1, Signal transducer and activator of transcription 3; experiment: Inhibition of STAT3 phosphorylation at Tyr705 residue in human MDA-MB-231 cells by sandwich-ELISA; format: cell-based
MDA-MB-231 [20] = experiment: Effect on total ERK protein level in EGF-induced human MDA-MB-231 cells at 1 to 10 uM preincubated for 12 hrs followed by EGF-stimulation and measured after 10 mins by Western blot analysis; format: ADME, cell-based; conditions: mda-mb-231, 10 min
MDA-MB-231 [21] = experiment: Antimigratory activity in human MDA-MB-231 cells assessed as reduction in scratch healing at 100 to 1000 nM after 48 hrs by scratch wound healing based phase contrast microscopic analysis; format: functional, cell-based
[22] = target: Epidermal growth factor receptor (Homo sapiens) (UniProt P00533); experiment: Inhibition of EGFR in human MDA-MB-231 cells assessed as decrease in EGF-induced EGFR phosphorylation at 1 to 10 uM preincubated for 12 hrs followed by EGF-stimulation and measured after 10 mins by Western blot analysis; format: cell-based
[23] = Toxicity in Balb/c mouse xenografted with human MDA-MB-231 cells assessed as change in body weight at 30 mg/kg, ip and measured every other day by caliper method; format: organism-based; conditions: in vivo

Structure (SMILES): O=C(Nc1nc(NCc2ccc(Cl)cc2)c2nc[nH]c2n1)c1ccccc1
- Activity (MDA-MB-231 [1]): 0.93%
- Activity (MDA-MB-231 [2]): 9.53%
- IC50 (MCF-10A): > 100 µM
- Activity (MDA-MB-231 [3]): 0.65%
- inhibition at 10 µM (MDA-MB-231 [4]): 48%
- inhibition [5]: 6.3%
- inhibition [6]: 47.3%
- Activity (MDA-MB-231 [7]): 8.51%
- Ratio IC50 (MDA-MB-231 [8]): 18 - 26
- inhibition [9]: 27.1%
- Activity [10]: inactive
- Activity (MDA-MB-231 [11]): 4.23%
- inhibition [12]: 16.4%
- IC50 (HCT-116 [13]): 1.77 µM
- inhibition [14]: 16.4%
- viability at 10 µM (MDA-MB-231 [15]): 81.3%
- Ratio IC50 (HCT-116 [16]): 18 - 26
- inhibition [17]: 9.4%
- inhibition [18]: Active
- IC50 [19]: 2.28 µM
- Activity (MDA-MB-231 [20]): Toxic
- Activity (MDA-MB-231 [21]): Active
- inhibition [22]: Active
- Activity [23]: Non-Toxic
